From PubChem BioAssay AID687005 (Broad Institute, 2013)
Records with an inconclusive call do not appear. Active and inactive are the calls of the source.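 The calls were made as follows: active = Compounds that reduce signal, with fitted half-maximal dose at or under twice the top valid tested dose; inconclusive = Poor fit, or flat curve losing 30 to 70% of signal; inactive = Potency past limit, flat within 30%, or opposite direction.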

Assay: HEK293T cell cytotoxicity, dose response, cytotoxicity control, ATP luminescence, cherry-pick samples (AID 687005)
Conditions: HEK293T viability, ATP luminescence (CellTiter-Glo), 48 h; at 23.5 µM (top of the series)

SMILES	activity change, negative = cytotoxicity
CN1C(=O)c2cc(NS(C)(=O)=O)ccc2OC[C@@H]2O[C@@H](CC(=O)O)CC[C@@H]21	-2.71% (inactive)
Cc1noc(C)c1NC(=O)Nc1ccc2c(c1)C(=O)N(C)[C@H]1CC[C@H](CC(=O)N[C@H]3CCN(Cc4ccccc4)C3)O[C@H]1CO2	-3.29% (inactive)
C[C@@H]1CCCCO[C@@H](CN(C)Cc2ccc(C(F)(F)F)cc2)[C@@H](C)CN([C@@H](C)CO)C(=O)c2cc(NS(=O)(=O)c3cn(C)cn3)ccc2O1	-31.2% (inactive)
C[C@@H]1CN([C@H](C)CO)C(=O)c2cc(NS(=O)(=O)c3cn(C)cn3)ccc2O[C@H]1CN(C)C(=O)Nc1cccc2ccccc12	17.8% (inactive)
CN1c2ccc(Br)cc2[C@@H]2[C@@H](CCN2C(=O)Cc2cccnc2)[C@@H]1CO	-13.9% (inactive)

Same assay, conditions: HEK293T viability, ATP luminescence (CellTiter-Glo), 48 h; at 26 µM (top of the series)

SMILES	activity change, negative = cytotoxicity
CC=Cc1ccc2n(c1=O)C[C@H]1[C@H](CO)[C@@H](C(=O)NCc3ccc4c(c3)OCO4)[C@@H]2N1C(=O)C1CC1 (mixture of isomers)	-15.5% (inactive)
CNC(=O)C[C@H]1CC[C@H]2[C@@H](COc3ccc(NC(=O)Nc4cccc(C#N)c4)cc3C(=O)N2C)O1	23.1% (inactive)
COCC(=O)N(C)C[C@@H]1Oc2ncc(C#CCC3CCCC3)cc2C(=O)N([C@@H](C)CO)C[C@H]1C	1.81% (inactive)
COc1ccccc1C(=O)Nc1ccc2c(c1)C(=O)N(C)C[C@@H](OC)[C@H](C)CN(C)[C@@H](C)CO2	0.103% (inactive)
CNC[C@H]1OCCCC[C@H](C)Oc2ccc(NC(=O)CCCN(C)C)cc2C(=O)N([C@H](C)CO)C[C@@H]1C	15.7% (inactive)
Cc1ccc(S(=O)(=O)Nc2ccc3c(c2)C(=O)N([C@H](C)CO)C[C@H](C)[C@@H](CN(C)Cc2ccccc2)O3)cc1	43.1% (inactive)
CO[C@H]1CC[C@H]2CCOc3c(C#N)cccc3C(=O)N(C)C[C@@H](C)C(=O)N(C)C[C@H]1O2	-16.5% (inactive)
COc1cccc(S(=O)(=O)Nc2ccc3c(c2)[C@@H]2C[C@H](CC(=O)NC4CCCCC4)O[C@H](CO)[C@@H]2O3)c1	-27.9% (inactive)
COc1ccc(S(=O)(=O)Nc2ccc3c(c2)C(=O)N([C@@H](C)CO)C[C@H](C)[C@@H](CN(C)C)OCCCC[C@H](C)O3)cc1	-9.62% (inactive)
CCCNC(=O)N(C)C[C@@H]1Oc2ncc(C#CC3CCCCC3)cc2C(=O)N([C@H](C)CO)C[C@@H]1C	-14% (inactive)
O=C(C[C@@H]1CC[C@H]2[C@@H](COC[C@@H](O)CN2C(=O)Nc2ccc(Cl)cc2)O1)NCCc1ccncc1	-9.46% (inactive)
C[C@H](NC(=O)C[C@H]1CC[C@@H](NC(=O)Cc2ccccn2)[C@@H](CO)O1)c1ccccc1	25.6% (inactive)
Cc1noc(C)c1NC(=O)N(C)C[C@H]1OCCCC[C@@H](C)Oc2ccc(NC(=O)NC(C)C)cc2C(=O)N([C@H](C)CO)C[C@H]1C	-10.9% (inactive)
O=C(C[C@@H]1C=C[C@@H](NC(=O)Nc2cc(F)ccc2F)[C@H](CO)O1)NCCCN1CCOCC1	0.247% (inactive)
C[C@H](NC(=O)C[C@@H]1CC[C@@H]2[C@H](COC[C@@H](O)CN2C(=O)Nc2cccc(F)c2)O1)c1ccccc1	-12.7% (inactive)
CCN1C(=S)N[C@@H](c2cccc(F)c2)C(C(=O)OC)=C1C	5.06% (inactive)
N#C[C@H]1[C@@H](c2ccccc2)[C@@H](CO)N1C(=O)Cc1ccccc1	-9.76% (inactive)
C[C@H](CO)N1C[C@H](C)[C@H](CN(C)C(=O)Nc2ccc3c(c2)OCO3)Oc2ncc(-c3ccc(F)cc3)cc2C1=O	-18.8% (inactive)
C[C@H](CO)N1C[C@H](C)[C@@H](CN(C)C(=O)Nc2cccc3ccccc23)Oc2c(cccc2N(C)C)C1=O	49.5% (inactive)
CO[C@@H]1CN(C)C(=O)c2cc(NS(=O)(=O)c3ccc(C)cc3)ccc2OC[C@@H](C)N(C)C[C@@H]1C	5.91% (inactive)
COCC(=O)Nc1ccc2c(c1)C(=O)N(C)C[C@H](OC)[C@@H](C)CN(C(=O)c1ccccc1)[C@@H](C)CO2	13.6% (inactive)

SMILES	activity change, negative = cytotoxicity
CNC[C@@H]1Oc2c(NS(=O)(=O)c3ccc(Cl)cc3)cccc2C(=O)N([C@H](C)CO)C[C@H]1C	24.2% (inactive)
C[C@@H]1CN([C@@H](C)CO)C(=O)Cc2cc(NS(=O)(=O)c3ccccc3)ccc2O[C@@H]1CN(C)Cc1ccc(Cl)c(Cl)c1	-71.5% (inactive)
C[C@@H]1CN([C@H](C)CO)C(=O)c2cc(-c3ccc(C#N)cc3)cnc2O[C@@H]1CN(C)C(=O)Nc1ccc(F)cc1	-0.869% (inactive)
Cc1ccc(CSc2ncnc3c2cnn3-c2ccc(C)cc2)cc1	-28.8% (inactive)
C[C@H]1CN([C@@H](C)CO)C(=O)c2cccc(NS(=O)(=O)c3cn(C)cn3)c2O[C@@H]1CN(C)CC1CCCCC1	-5.42% (inactive)
O=C(CSc1ncnc2c1cnn2-c1ccc(F)cc1)NC1CCCC1	-30.5% (inactive)
O=C1CCC(C(=O)Nc2cccc3ccccc23)N1 (configuration not stated)	25.1% (inactive)
COc1ccccc1CNC(=O)C[C@@H]1C[C@@H]2c3cc(NC(=O)Nc4ccccc4F)ccc3O[C@@H]2[C@H](CO)O1	15.8% (inactive)
C[C@@H](O)C#Cc1ccc([C@@H]2[C@H](CO)N3CCCCN(CC4CC4)C[C@@H]23)cc1	-28.3% (inactive)
COC(=O)C1=C(C)N(Cc2ccccc2)C(=S)NC1c1ccc(Cl)cc1 (configuration not stated)	-9.7% (inactive)
CN(C)CCCn1c(=O)n(C2CCCCC2)c(=O)c2c3c(sc21)CCCCC3	50.5% (inactive)
C[C@@H]1CN([C@@H](C)CO)C(=O)CCCn2cc(nn2)CO[C@@H]1CN(C)C(=O)NC1CCCC1	5.64% (inactive)
COc1ccccc1NC(=O)N[C@@H]1CC[C@@H](CCn2cc(C3(O)CCCC3)nn2)O[C@H]1CO	9.21% (inactive)
O=C(C[C@@H]1CC[C@H]2[C@@H](COC[C@H](O)CN2Cc2cccc(C(F)(F)F)c2)O1)NCc1ccccc1	-14.1% (inactive)
C[C@H](NC(=O)C[C@@H]1C=C[C@H](NC(=O)CN2CCOCC2)[C@@H](CO)O1)c1ccccc1	18.6% (inactive)
COCCNC(=O)C[C@H]1C[C@@H]2c3cc(NC(=O)C4CCC4)ccc3O[C@@H]2[C@H](CO)O1	26.2% (inactive)
CC=Cc1ccc2n(c1=O)C[C@H]1[C@H](CO)[C@@H](C(=O)N3CCOCC3)N(CC3CC3)[C@@H]21 (mixture of isomers)	2.31% (inactive)
Cc1ccc(C)c(NC(=O)C2CCCN2C(=O)NC2CCCCC2)c1 (configuration not stated)	25.9% (inactive)
CC(=O)c1sc(NC(=O)c2cc(-c3ccccc3)nn2-c2ccccc2)nc1C	38.5% (inactive)
CNC(=O)CSc1ncnc2c1cnn2-c1ccccc1	10.1% (inactive)

Same assay, conditions: HEK293T viability, ATP luminescence (CellTiter-Glo), 48 h; at 35 µM (top of the series)

SMILES	activity change, negative = cytotoxicity
Cc1ccc(NC(=O)C2(C)CCN2C(=O)CCC2CCCC2)cc1C (configuration not stated)	-23.2% (inactive)
